Columns and labels:
[1] = tested on: anti-topiramate antibodies prepared with immunogen (18); experiment: ELISA binding inhibition study (avidity), free topiramate vs coated antigens; design: species or system Rabbit; conditions: for Abs Antigen 16 / Abs Antigen 19 / Abs Antigen 20: 405 nm
Protocol: ELISA plates for use in an ELISA assay are prepared in order to study the polyclonal antibody prepared as described in Example 21. As such, various topiramate antigens (16), (19), and (20) are coated on different ELISA plates before being subjected to the anti-topiramate antibody and competing free topiramate. More particularly, the topiramate antigens are diluted in coating buffer, and then added to the wells of ELISA plate. After the ELISA plate is inculcated for 60 min at 37° C., the solvent in the coating buffer is decanted and a blocking buffer is added to the plate. The plate is incubated again for 60 min at 37° C., and the solvent in the blocking buffer is decanted from the plate. The ELISA plate is then stored with the blocking agent in the wells at 2-8° C. for up to 1 week. The avidity of the anti-topiramate antibodies prepared with immunogen (17) for topirainate analogs are determined by a binding inhibition study. As such, samples are prepared in 1 mL of PBS at pH 7.4 with 0.1% BSA. A composition having 30% Bmax titer or 50% Bmax titer is used to divide the obtained titer value into approximately half the titer value. Using 30% Bmax, an antibody titer of 1:10000 is diluted to 1:5000 during the sample preparation stage. About 50 μL of topiramate at different concentrations or calibrator values, (0, 2, 4, 8, 16, 32 μg/ml) are then applied to a plate as prepared in accordance with Example 22. About 50 μL of the diluted antibody is dispensed into the plate, and the compositions in the plate are mixed for 1 min on a horizontal plate shaker. The plate is characterized by a first row not containing topiramate or anti-topiramate antibody, wherein the first row is used as a negative control. A second row not containing topiramate is used as the positive control. The plate is incubated for 60 min, and washed three times with 250 μL of PBS at pH 7.4 with 0.05% tween. About 125 μL of a diluted second antibody conjugate such as antigens (16), (19), or (20), in PBS at pH 7.4 is added to each well of the plate. Titer is determined experimentally by the plate being incubated for 60 min at 37° C. and washed 3 times with 250 μL PBS, pH 7.4 with 0.05% tween. Subsequently, about 125 μL of ABTS substrate is added to each well of the plate and incubated for 20 min. The avidity of the anti-topiramate antibodies prepared with immunogen (18) for topiramate analogs is determined by a binding inhibition study performed with an experimental protocol substantially similar as in Example 24.

[2] = tested on: sheep polyclonal antibodies that bind with topiramate prepared from immunogen (18); experiment: QMS homogeneous particle-enhanced immunoturbidimetric assay; assay type: binding; conditions: Polyclonal antibody R1, Topiramate antigen (19) coated Latex
Protocol: An immunoturbidimetric or QMS® assay, which is a homogeneous particle-enhanced immunoturbidimetric experiment, is performed to test the polyclonal antibodies prepared as in Example 21. […] Additionally, suitable specimens can be prepared from serum and plasma. Serum can be collected by standard venipuncture techniques and placed into glass or plastic tubes with or without gel barriers. […] In the instance the specimen is centrifuged before a complete clot forms, the presence of fibrin may cause erroneous results. Accordingly, the serum can be separated from red blood cells as soon after collection as possible. Plasma can also be used with acceptable anticoagulants, such as lithium heparin, sodium heparin, potassium EDTA, and a heparin gel plasma separator. The plasma can be collected by standard venipuncture techniques and placed into glass or plastic tubes. Also, centrifugation is used to ensure the adequate removal of platelets. The plasma can be separated from red blood cells as soon as possible after collection. The specimens that contain particulate matter or red blood cells may give inconsistent results, but can be centrifuged before testing at a recommended 8,000 to 10,000 RCF×10 minutes to produce a suitable specimen. The assay procedure is initiated by diluting the specimen because the specimens with topiramate can be used to generate results that exceed the highest calibrator value. As such, the specimens may be diluted manually or by using an automated onboard dilution protocol. The assay is based on competition for topiramate-specific antibody binding sites between drug in the sample and drug coated onto a microparticle of topiramate-coated microparticle reagent is rapidly agglutinated in the presence of the anti-topiramate antibody reagent and in the absence of any competing drug in the sample. The rate of absorbance change is measured photometrically, and is directly proportional to the rate of agglutination of the particles. […] A concentration-dependent classic agglutination inhibition curve can be obtained, with maximum rate of agglutination at the lowest topiramate concentration (at zero μg/ml) and the lowest agglutination rate at the highest topiramate concentration (32 μg/ml). The QMS® topiramate assay is initiated after the being calibrated using a full calibration (6-point) procedure. The QMS® is performed as directed in operation manuals in accordance with the average skill of one in the art.

[3] = Rabbit No. 5490, topiramate 2 μg/ml
[4] = Rabbit No. 5490, topiramate 4 μg/ml
[5] = Rabbit No. 5490, topiramate 8 μg/ml
[6] = Rabbit No. 5490, topiramate 16 μg/ml
[7] = Rabbit No. 5490, topiramate 32 μg/ml
[8] = Rabbit No. 5495, topiramate 2 μg/ml
[9] = Rabbit No. 5495, topiramate 4 μg/ml
[10] = Rabbit No. 5495, topiramate 8 μg/ml
[11] = Rabbit No. 5495, topiramate 16 μg/ml
[12] = Rabbit No. 5495, topiramate 32 μg/ml

CC1(C)O[C@@H]2[C@@H](CO[C@@]3(COS(N)(=O)=O)OC(C)(C)O[C@@H]23)O1 [Topiramate, 2,3:4,5-di-O-isopropylidene-beta-D-fructopyranose sulfamate]
B/Bo Antigen 16 [1, 3]: 0.35
B/Bo Antigen 19 [1, 3]: 0.18
B/Bo Antigen 20 [1, 3]: 0.63
Abs Antigen 16 [1, 3]: 0.25
Abs Antigen 19 [1, 3]: 0.10
Abs Antigen 20 [1, 3]: 0.25
B/Bo Antigen 16 [1, 4]: 0.28
B/Bo Antigen 19 [1, 4]: 0.10
B/Bo Antigen 20 [1, 4]: 0.60
Abs Antigen 16 [1, 4]: 0.20
Abs Antigen 19 [1, 4]: 0.06
Abs Antigen 20 [1, 4]: 0.24
B/Bo Antigen 16 [1, 5]: 0.21
B/Bo Antigen 19 [1, 5]: 0.07
B/Bo Antigen 20 [1, 5]: 0.55
Abs Antigen 16 [1, 5]: 0.15
Abs Antigen 19 [1, 5]: 0.04
Abs Antigen 20 [1, 5]: 0.22
B/Bo Antigen 16 [1, 6]: 0.17
B/Bo Antigen 19 [1, 6]: 0.06
B/Bo Antigen 20 [1, 6]: 0.53
Abs Antigen 16 [1, 6]: 0.12
Abs Antigen 19 [1, 6]: 0.03
Abs Antigen 20 [1, 6]: 0.21
B/Bo Antigen 16 [1, 7]: 0.14
B/Bo Antigen 19 [1, 7]: 0.04
B/Bo Antigen 20 [1, 7]: 0.50
Abs Antigen 16 [1, 7]: 0.10
Abs Antigen 19 [1, 7]: 0.02
Abs Antigen 20 [1, 7]: 0.20
B/Bo Antigen 16 [1, 8]: 0.35
B/Bo Antigen 19 [1, 8]: 0.20
B/Bo Antigen 20 [1, 8]: 0.53
Abs Antigen 16 [1, 8]: 0.25
Abs Antigen 19 [1, 8]: 0.13
Abs Antigen 20 [1, 8]: 0.18
B/Bo Antigen 16 [1, 9]: 0.39
B/Bo Antigen 19 [1, 9]: 0.12
B/Bo Antigen 20 [1, 9]: 0.50
Abs Antigen 16 [1, 9]: 0.28
Abs Antigen 19 [1, 9]: 0.08
Abs Antigen 20 [1, 9]: 0.17
B/Bo Antigen 16 [1, 10]: 0.21
B/Bo Antigen 19 [1, 10]: 0.08
B/Bo Antigen 20 [1, 10]: 0.47
Abs Antigen 16 [1, 10]: 0.15
Abs Antigen 19 [1, 10]: 0.05
Abs Antigen 20 [1, 10]: 0.16
B/Bo Antigen 16 [1, 11]: 0.17
B/Bo Antigen 19 [1, 11]: 0.06
B/Bo Antigen 20 [1, 11]: 0.41
Abs Antigen 16 [1, 11]: 0.12
Abs Antigen 19 [1, 11]: 0.04
Abs Antigen 20 [1, 11]: 0.14
B/Bo Antigen 16 [1, 12]: 0.14
B/Bo Antigen 19 [1, 12]: 0.03
B/Bo Antigen 20 [1, 12]: 0.32
Abs Antigen 16 [1, 12]: 0.10
Abs Antigen 19 [1, 12]: 0.02
Abs Antigen 20 [1, 12]: 0.11
Rate (Delta Absorbance) ([2]; topiramate 2 μg/ml sample): 159
Rate (Delta Absorbance) ([2]; topiramate 4 μg/ml sample): 122
Rate (Delta Absorbance) ([2]; topiramate 8 μg/ml sample): 60
Rate (Delta Absorbance) ([2]; topiramate 16 μg/ml sample): 16
Rate (Delta Absorbance) ([2]; topiramate 32 μg/ml sample): 4
